Where a name gives a salt, the structure may show the parent alone.
Target: T1, S2-receptor (Rattus norvegicus, UniProt P14842)
T1 construct: Caudal arteries from fasted male rats; from tissue; host or cells: rat caudal artery, helical strips
Assay: antagonistic activity on the effect of serotonin on the caudal artery of the rat (caudal artery test)
Conditions: rat caudal artery strips; serotonin 40 ng/ml; 5 minutes after adding the drug; read-out: ED50 (minimal concentration which reduces the amplitude of the serotonin-induced contraction to at least 50% of its normal value) (converted)
Method: ANTAGONISTIC ACTIVITY ON THE EFFECT OF SEROTONIN ON THE CAUDAL ARTERY OF THE RAT
Caudal arteries from fasted male rats (210-235 g) were used in the test. […] Submaximal contractions of the arterial strips were produced by adding single doses of serotonin (40 ng/ml) to the organ bath for 2 minutes with each time an interval of 10 minutes. The amplitude of the contraction was measured before and 5 minutes after adding the drug. After washing out, the agonist was added again three times in order to see whether the contraction was restored and normalized. […] In this connection the ED50 -values are the minimal concentrations of the concerned drugs which reduce the amplitude of the contraction to at least 50% of its normal value.

T1 sequence (P14842 whole entry): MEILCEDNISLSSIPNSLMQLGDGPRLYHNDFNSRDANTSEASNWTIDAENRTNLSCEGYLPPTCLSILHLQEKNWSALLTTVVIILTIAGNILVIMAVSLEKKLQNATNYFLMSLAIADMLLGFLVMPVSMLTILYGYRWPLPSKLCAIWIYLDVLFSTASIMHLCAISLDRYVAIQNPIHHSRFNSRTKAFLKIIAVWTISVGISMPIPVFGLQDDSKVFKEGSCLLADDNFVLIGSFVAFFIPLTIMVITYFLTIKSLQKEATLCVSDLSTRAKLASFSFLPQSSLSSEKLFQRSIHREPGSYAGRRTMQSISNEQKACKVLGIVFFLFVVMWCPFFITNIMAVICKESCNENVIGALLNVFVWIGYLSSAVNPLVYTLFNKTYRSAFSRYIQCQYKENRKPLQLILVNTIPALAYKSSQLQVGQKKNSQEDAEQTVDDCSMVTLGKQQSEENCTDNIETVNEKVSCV

Row | IC50 [pM] | Structure (SMILES)
1 | 2.73 | Cc1nc2n(c(=O)c1CCN1CCC(=C(c3ccccc3)c3ccc(F)cc3)CC1)CCCS2 [Compound 115]
2 | 1.33 | Cc1cccc(C(=C2CCN(CCc3c(C)nc4sccn4c3=O)CC2)c2ccc(F)cc2)c1 [Compound 14]
3 | 0.323 | Cc1nc2n(c(=O)c1CCN1CCC(=C(c3ccc(F)cc3)c3cccc(Cl)c3)CC1)CCS2 [Compound 5]
4 | 2.65 | Cc1cccc(C(=C2CCN(CCc3c(C)nc4n(c3=O)CCCC4)CC2)c2ccc(F)cc2)c1 [Compound 138, 3-[2-[4-[(4-fluorophenyl)(3-methylphenyl)methylene]-1-piperidinyl]ethyl]-6,7,8,9-tetrahydro-2-methyl-4H-pyrido[1,2-a]pyrimidin-4-one]
5 | 2.68 | Cc1ccc(C(=C2CCN(CCc3c(C)nc4n(c3=O)CCCS4)CC2)c2ccc(C)cc2)cc1 [Compound 108, 7-[2-[4-[bis(4-methylphenyl)methylene]-1-piperidinyl]ethyl]-3,4-dihydro-8-methyl-2H,6H-pyrimido[2,1-b][1,3]thiazin-6-one]
6 | < 4.96 | Cc1nc2ccccn2c(=O)c1CCN1CCC(=C(c2ccccc2)c2cccc(C(F)(F)F)c2)CC1 [Compound 87]
7 | 2.82 | Cc1nc2n(c(=O)c1CCN1CCC(=C(c3ccccc3)c3ccc(F)cc3)CC1)CCS2 [Compound 116]
8 | 2.88 | Cc1nc2ccccn2c(=O)c1CCN1CCC(=C(c2ccccc2)c2ccc(O)cc2)CC1 [Compound 78]
9 | 0.656 | Cc1cccc(C(=C2CCN(CCc3c(C)nc4scc(C)n4c3=O)CC2)c2ccc(F)cc2)c1 [Compound 122]
10 | 2.63 | Cc1nc2sccn2c(=O)c1CCN1CCC(=C(c2ccc(F)cc2)c2ccc(F)cc2)C(O)C1 (centres unmarked) [Compound 60]
11 | 0.49 | Cc1ccc(C(=C2CCN(CCc3c(C)nc4scc(C)n4c3=O)CC2)c2ccccc2)cc1 [Compound 129]
12 | 1.29 | Cc1nc2ccccn2c(=O)c1CCN1CCC(=C(c2ccc(F)cc2)c2cccc(Cl)c2)CC1 [Compound 16]
13 | 1.18 | Cc1nc2n(c(=O)c1CCN1CCC(=C(c3ccc(F)cc3)c3ccc(F)cc3)CC1)CCCC2 [Compound 3]
14 | 0.648 | Cc1nc2n(c(=O)c1CCN1CCC(=C(c3ccc(F)cc3)c3ccc(F)cc3)CC1)CCCS2 [Compound 29]
15 | 0.705 | Cc1ccc(C(=C2CCN(CCc3c(C)nc4n(c3=O)CCCC4)CC2)c2ccccc2)cc1 [Compound 71]
16 | 0.651 | Cc1nc2scc(C)n2c(=O)c1CCN1CCC(=C(c2ccc(F)cc2)c2cccc(F)c2)CC1 [Compound 27]
17 | 0.678 | Cc1ccc(C(=C2CCN(CCc3c(C)nc4n(c3=O)CCCS4)CC2)c2ccccc2)cc1 [Compound 128]
18 | 1.33 | Cc1nc2n(c(=O)c1CCN1CCC(=C(c3ccc(O)cc3)c3ccc(F)cc3)CC1)CCCC2 [Compound 39]
19 | 4.79 | Cc1nc2ccccn2c(=O)c1CCN1CCC(=C(c2ccc(F)cc2)c2cccc(C(F)(F)F)c2)CC1 [Compound 31]
20 | 1.06 | COc1ccc(C(=C2CCN(CCc3c(C)nc4sccn4c3=O)CC2)c2ccc(F)cc2)cc1 [Compound 144, 6-[2-[4-[(4-fluorophenyl)(4-methoxyphenyl)methylene]-1-piperidinyl]ethyl]-7-methyl-5H-thiazolo[3,2-a]pyrimidin-5-one monohydrochloride]

Row | IC50 [pM] | Structure (SMILES)
21 | 2.54 | Cc1nc2n(c(=O)c1CCN1CCC(=C(c3ccc(Cl)cc3)c3ccc(Cl)cc3)CC1)CCS2 [Compound 110, 6-[2-[4-[bis(4-chlorophenyl)methylene]-1-piperidinyl]ethyl]-2,3-dihydro-7-methyl-5H-thiazolo[3,2-a]pyrimidin-5-one]
22 | 4.51 | Cc1nc2ccccn2c(=O)c1CCN1CCC(=C(c2ccc(F)cc2)c2ccc(F)cc2)C(O)C1 (centres unmarked) [Compound 61]
23 | 2.56 | Cc1nc2ccccn2c(=O)c1CCN1CCC(=C(c2ccc(F)cc2)c2ccc(Cl)cc2)CC1 [Compound 13]
24 | < 1.28 | Cc1nc2sccn2c(=O)c1CCN1CCC(=C(c2ccc(F)cc2)c2ccc(Cl)cc2)CC1 [Compound 9]
25 | 2.74 | Cc1nc2scc(C)n2c(=O)c1CCN1CCC(=C(c2ccc(F)cc2)c2cccnc2)CC1 [Compound 124]
26 | 1.19 | Cc1ccc(C(=C2CCN(CCc3c(C)nc4sccn4c3=O)CC2)c2ccc(C)cc2)cc1 [Compound 26]
27 | 1.17 | Cc1nc2n(c(=O)c1CCN1CCC(=C(c3ccc(F)cc3)c3ccc(F)cc3)CC1)CCS2 [Compound 113]
28 | < 5.32 | Cc1ccccc1C(=C1CCN(CCc2c(C)nc3scc(C)n3c2=O)CC1)c1ccccc1 [Compound 81]
29 | 2.65 | Cc1cccc(C(=C2CCN(CCc3c(C)nc4n(c3=O)CCCS4)CC2)c2ccc(F)cc2)c1 [Compound 121]
30 | 2.86 | Cc1nc2ccccn2c(=O)c1CCN1CCC(=C(c2ccc(F)cc2)c2cccnc2)CC1 [Compound 57]
31 | 1.11 | COc1ccc(C(=C2CCN(CCc3c(C)nc4scc(C)n4c3=O)CC2)c2ccc(F)cc2)cc1 [Compound 142, 6-[2-[4-[(4-fluorophenyl)(4-methoxyphenyl)methylene]-1-piperidinyl]ethyl]-3,7-dimethyl-5H-thiazolo[3,2-a]pyrimidin-5-one]
32 | 1.08 | Cc1nc2n(c(=O)c1CCN1CCC(=C(c3ccccc3)c3ccccc3)CC1)CCS2 [Compound 107, 6-[2-[4-(diphenylmethylene)-1-piperidinyl]ethyl]-2,3-dihydro-7-methyl-5H-thiazolo[3,2-a]pyrimidin-5-one dihydrochloride]
33 | 5.44 | Cc1nc2n(c(=O)c1CCN1CCC(=C(c3ccccc3)c3ccc(O)cc3)CC1)CCS2 [Compound 73]
34 | 0.684 | Cc1ccc(C(=C2CCN(CCc3c(C)nc4ccccn4c3=O)CC2)c2ccc(F)cc2)cc1 [Compound 41]
35 | 0.681 | Cc1cccc(C(=C2CCN(CCc3c(C)nc4scc(C)n4c3=O)CC2)c2ccccc2)c1 [Compound 68]
36 | 1.34 | Cc1nc2ccccn2c(=O)c1CCN1CCC(=C(c2ccc(F)cc2)c2ccc(F)cc2)CC1 [Compound 58]
37 | < 4.91 | Cc1nc2sccn2c(=O)c1CCN1CCC(=C(c2ccccc2)c2cccc(C(F)(F)F)c2)CC1 [Compound 89]
38 | 0.705 | Cc1ccccc1C(=C1CCN(CCc2c(C)nc3n(c2=O)CCCC3)CC1)c1ccccc1 [Compound 92]
39 | 2.66 | Cc1nc2ccccn2c(=O)c1CCN1CCC(=C(c2ccc(O)cc2)c2ccc(F)cc2)CC1 [Compound 20]
40 | 2.44 | Cc1nc2ccccn2c(=O)c1CCN1CCC(=C(c2ccc(F)cc2)c2ccc(Br)cc2)CC1 [Compound 45]

Row | IC50 [pM] | Structure (SMILES)
41 | 1.3 | COc1ccc(C(=C2CCN(CCc3c(C)nc4ccccn4c3=O)CC2)c2ccc(F)cc2)cc1 [Compound 143, 3-[2-[4-[(4-fluorophenyl)(4-methoxyphenyl)methylene]-1-piperidinyl]ethyl]-2-methyl-4H-pyrido[1,2-a]pyrimidin-4-one dihydrochloride.monohydrate]
42 | 0.656 | Cc1ccc(C(=C2CCN(CCc3c(C)nc4scc(C)n4c3=O)CC2)c2ccc(F)cc2)cc1 [Compound 38]
43 | < 1.45 | Cc1nc2ccccn2c(=O)c1CCN1CCC(=C(c2ccccc2)c2ccccc2)CC1 [Compound 18]
44 | 1.39 | Cc1nc2n(c(=O)c1CCN1CCC(=C(c3ccccc3)c3cccc(C(F)(F)F)c3)CC1)CCS2 [Compound 90]
45 | 2.31 | Cc1nc2scc(C)n2c(=O)c1CCN1CCC(=C(c2ccc(F)cc2)c2cccc(C(F)(F)F)c2)CC1 [Compound 119]
46 | 6.11 | Cc1nc2n(c(=O)c1CCN1CCC(=C(c3ccc(F)cc3)c3cccnc3)CC1)CCCC2 [Compound 54]
47 | 2.35 | Cc1nc2scc(C)n2c(=O)c1CCN1CCC(=C(c2ccc(F)cc2)c2ccc(Br)cc2)CC1 [Compound 32]
48 | 0.362 | Cc1nc2sccn2c(=O)c1CCN1CCC(=C(c2ccccc2)c2ccccc2)CC1 [Compound 4]
49 | 0.651 | Cc1nc2scc(C)n2c(=O)c1CCN1CCC(=C(c2ccc(F)cc2)c2ccc(F)cc2)CC1 [Compound 112, 6-[2-[4-[bis(4-fluorophenyl)methylene]-1-piperidinyl]ethyl]-3,7-dimethyl-5H-thiazolo[3,2-a]pyrimidin-5-one]
50 | 1.17 | Cc1nc2n(c(=O)c1CCN1CCC(=C(c3ccc(F)cc3)c3cccc(F)c3)CC1)CCS2 [Compound 28]
51 | 1.32 | Cc1nc2n(c(=O)c1CCN1CCC(=C(c3ccc(F)cc3)c3ccc(Br)cc3)CC1)CCCC2 [Compound 35]
52 | 2.84 | Cc1nc2sccn2c(=O)c1CCN1CCC(=C(c2ccccc2)c2ccc(O)cc2)CC1 [Compound 80]
53 | 0.63 | Cc1nc2n(c(=O)c1CCN1CCC(=C(c3ccccc3)c3cccc(C(F)(F)F)c3)CC1)CCCC2 [Compound 86]
54 | 4.66 | Cc1ccc(C(=C2CCN(CCc3c(C)nc4n(c3=O)CCCC4)CC2)c2ccc(F)cc2)cc1 [Compound 42]
55 | 1.14 | Cc1nc2scc(C)n2c(=O)c1CCN1CCC(=C(c2ccc(O)cc2)c2ccc(F)cc2)CC1 [Compound 23, 6-[2-[4-[(4-fluorophenyl)-(4-hydroxyphenyl)methylene]-1-piperidinyl]ethyl]-3,7-dimethyl-5H-thiazolo[3,2-a]pyrimidin-5-one]
56 | 0.633 | Cc1nc2sc(C)c(C)n2c(=O)c1CCN1CCC(=C(c2ccc(F)cc2)c2ccc(F)cc2)CC1 [Compound 127]
57 | 4.31 | Cc1nc2sccn2c(=O)c1CCN1CCC(=C(c2ccc(Cl)cc2)c2ccc(Cl)cc2)CC1 [Compound 48]
58 | 2.76 | Cc1nc2ccccn2c(=O)c1CCN1CCC(=C(c2ccc(F)cc2)c2ccc(F)cc2)CC1 [Compound 2]
59 | 2.54 | Cc1nc2n(c(=O)c1CCN1CCC(=C(c3ccc(F)cc3)c3ccc(Cl)cc3)CC1)CCCC2 [Compound 11]

Source: patent US4533665A, “[[Bis(aryl)methylene]-1-piperidinyl]alkyl-pyrimidinones” (Janssen Pharmaceutica, priority 1984, dated 1985)
